Source: patent US20240059693A1, “FUSED BICYCLIC PYRAZOLE DERIVATIVES AND METHODS OF USE THEREOF FOR THE TREATMENT OF HERPESVIRUSES” (Merck Sharp & Dohme LLC, priority 2020, published 2024)
Like-named read-outs stand apart in the source and are kept apart here.

Assays:
[1] = molecular target: T1, Human cytomegalovirus DNA polymerase (Human cytomegalovirus, UniProt P08546); test: HCMV polymerase assay (AlphaLISA); type: biochemical; details: HCMV DNA polymerase 0.2 nM, 60 minutes at 37° C.; read-out: CMV (IC50)
T1 construct: made in house; host or cells: SF21 insect cells (baculovirus vector)
T1 sequence (P08546 whole entry): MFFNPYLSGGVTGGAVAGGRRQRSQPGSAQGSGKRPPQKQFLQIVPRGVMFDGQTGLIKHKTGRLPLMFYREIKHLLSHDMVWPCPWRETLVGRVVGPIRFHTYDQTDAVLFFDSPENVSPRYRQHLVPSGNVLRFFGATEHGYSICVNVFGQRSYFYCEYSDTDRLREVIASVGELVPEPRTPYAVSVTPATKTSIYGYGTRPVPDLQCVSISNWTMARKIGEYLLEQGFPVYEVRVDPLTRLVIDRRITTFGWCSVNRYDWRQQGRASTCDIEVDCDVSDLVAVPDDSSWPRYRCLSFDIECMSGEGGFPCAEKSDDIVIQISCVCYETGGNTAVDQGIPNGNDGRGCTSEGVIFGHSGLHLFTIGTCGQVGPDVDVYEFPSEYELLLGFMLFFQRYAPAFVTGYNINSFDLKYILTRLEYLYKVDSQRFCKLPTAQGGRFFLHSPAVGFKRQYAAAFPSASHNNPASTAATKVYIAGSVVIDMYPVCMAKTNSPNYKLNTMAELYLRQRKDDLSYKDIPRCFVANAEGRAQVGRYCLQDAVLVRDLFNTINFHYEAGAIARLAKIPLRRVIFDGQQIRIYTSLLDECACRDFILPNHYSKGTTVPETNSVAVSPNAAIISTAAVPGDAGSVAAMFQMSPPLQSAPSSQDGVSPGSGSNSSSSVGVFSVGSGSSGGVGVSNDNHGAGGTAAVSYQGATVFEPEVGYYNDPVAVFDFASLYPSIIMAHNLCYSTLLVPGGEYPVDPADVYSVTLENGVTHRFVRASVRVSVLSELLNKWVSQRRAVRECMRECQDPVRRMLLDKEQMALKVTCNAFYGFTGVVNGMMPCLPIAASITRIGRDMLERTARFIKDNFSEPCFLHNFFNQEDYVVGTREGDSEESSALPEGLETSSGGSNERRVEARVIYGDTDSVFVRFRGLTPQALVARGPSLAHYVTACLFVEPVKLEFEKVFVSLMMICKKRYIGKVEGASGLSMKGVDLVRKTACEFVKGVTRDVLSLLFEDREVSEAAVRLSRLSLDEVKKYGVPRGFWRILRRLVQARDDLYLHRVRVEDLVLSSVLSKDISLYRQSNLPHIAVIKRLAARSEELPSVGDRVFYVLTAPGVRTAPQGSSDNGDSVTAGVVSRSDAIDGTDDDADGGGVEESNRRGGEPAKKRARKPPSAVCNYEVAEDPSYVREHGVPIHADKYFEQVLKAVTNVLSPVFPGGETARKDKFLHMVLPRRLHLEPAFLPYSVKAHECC
Outline: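 Baculovirus/SF21-expressed polymerase (HCMV 0.2 nM; VZV 0.4 nM) pre-incubated 30 min at room temperature with compound in HEPES pH 7.5 buffer, then 60 min at 37 °C with 1.6 nM DIG-primer/template, sub-nM to 24 nM dNTPs and 0.8 nM biotin-dUTP. AlphaLISA detection; IC50 from 4-parameter fit.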

[2] = molecular target: T2, varicella zoster virus DNA polymerase (Varicella-zoster virus, UniProt P09252); test: VZV polymerase assay (AlphaLISA); type: biochemical; details: VZV DNA polymerase 0.4 nM, 60 minutes at 37° C.
T2 construct: made in house; host or cells: SF21 insect cells (baculovirus vector)
T2 sequence (P09252 whole entry): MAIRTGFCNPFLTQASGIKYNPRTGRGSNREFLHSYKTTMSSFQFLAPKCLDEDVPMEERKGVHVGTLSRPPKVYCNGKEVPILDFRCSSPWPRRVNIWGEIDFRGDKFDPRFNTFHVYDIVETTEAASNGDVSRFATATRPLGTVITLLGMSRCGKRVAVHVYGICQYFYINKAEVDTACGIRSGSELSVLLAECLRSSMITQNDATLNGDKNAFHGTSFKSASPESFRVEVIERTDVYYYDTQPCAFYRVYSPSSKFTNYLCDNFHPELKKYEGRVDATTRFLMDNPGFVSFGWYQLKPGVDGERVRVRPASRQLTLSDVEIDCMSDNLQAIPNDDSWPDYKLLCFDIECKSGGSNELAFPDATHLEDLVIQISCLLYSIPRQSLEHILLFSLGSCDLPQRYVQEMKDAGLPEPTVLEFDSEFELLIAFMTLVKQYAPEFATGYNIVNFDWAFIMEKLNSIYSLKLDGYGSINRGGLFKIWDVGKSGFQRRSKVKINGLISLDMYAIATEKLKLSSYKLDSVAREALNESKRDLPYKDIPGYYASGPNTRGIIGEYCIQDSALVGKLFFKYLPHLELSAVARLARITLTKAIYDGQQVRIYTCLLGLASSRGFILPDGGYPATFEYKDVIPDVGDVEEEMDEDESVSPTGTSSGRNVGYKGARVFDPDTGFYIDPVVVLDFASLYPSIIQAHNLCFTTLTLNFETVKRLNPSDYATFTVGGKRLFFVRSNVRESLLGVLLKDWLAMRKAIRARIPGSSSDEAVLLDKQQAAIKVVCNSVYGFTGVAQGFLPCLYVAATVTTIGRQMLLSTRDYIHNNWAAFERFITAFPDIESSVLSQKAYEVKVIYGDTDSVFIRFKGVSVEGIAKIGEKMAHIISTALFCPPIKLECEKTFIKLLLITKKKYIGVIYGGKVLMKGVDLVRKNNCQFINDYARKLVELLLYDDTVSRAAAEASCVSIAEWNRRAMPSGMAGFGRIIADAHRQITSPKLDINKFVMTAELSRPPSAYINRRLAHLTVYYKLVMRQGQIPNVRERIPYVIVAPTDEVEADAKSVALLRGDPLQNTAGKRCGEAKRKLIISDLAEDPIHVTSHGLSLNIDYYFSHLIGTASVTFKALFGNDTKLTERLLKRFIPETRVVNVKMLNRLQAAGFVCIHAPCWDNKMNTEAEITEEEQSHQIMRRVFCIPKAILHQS
Method: Human cytomegalovirus and varicella zoster virus DNA polymerases were expressed via baculovirus vector in SF21 cells and purified. Heterodimeric nucleic acid substrate used in the herpesvirus polymerase reactions was generated by annealing a 59-mer template to a 17-mer digoxigenin-labeled primer. Polymerase (HCMV final concentration of 0.2 nM; VZV final concentration of 0.4 nM) was combined with an inhibitor compound or DMSO in assay buffer (10 mM HEPES, pH 7.5, 25 mM KCl, 25 mM NaCl, 5 mM MgCl2, 5% glycerol, 0.67 mg/ml bovine serum albuminutes, and 1 mM tris(2-carboxyethyl)phosphine), and this mixture was pre-incubated for 30 minutes at room temperature in 384-well microtiter plates. The polymerization reaction was initiated by the addition of template/primer substrate (final concentration: 1.6 nM), and dNTPs (final concentration: 24 nM dCTP, 24 nMdGTP, 16 nM dATP, 16 nM dTTP, and 0.8 nM biotin-dUTP). After 60 minutes incubation at 37° C., reactions were terminated with quench buffer (25 mM HEPES pH 7.5, 100 mM NaCl, 0.25% Tween-20, 12 mM EDTA, and 1 mg/ml bovine serum albumin). Incorporation of biotinylated UTP was detected with 2.5-ug/ml anti-DIG AlphaLISA acceptor beads and 5-10 ug/ml streptavidin AlphaLISA donor beads (Perkin Elmer). Compound effects were normalized to the window defined by the controls (DMSO only and pre-quenched wells) and were fit using a 4-parameter algorithm to report an IC50.

HCMV Strain AD169 = test: Viral qPCR assay, HCMV in MRC-5 cells; type: cell-based, Human cytomegalovirus; details: read-out: CMV MRC5 Cell (EC50)
Outline: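 MRC-5 cells infected in suspension with HCMV AD169 (0.05-0.1 pfu/cell) and added to 10-point 3-fold compound dilutions, in growth media or media with 50% FBS. After ~72 h at 37 °C, lysates analysed by TaqMan qPCR against a plasmid standard curve, viral copies normalised to PPIA or not. EC50 from 4-parameter fit.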

HSV-1 Strain F = test: Viral qPCR assay, HSV-1 in Vero cells; type: cell-based, Herpes Simplex Virus type 1; details: read-out: HSV1 VERO Cell (EC50)
Method: (§1) MRCS cells, Vero cells, and MeWo cells were obtained from ATCC and were maintained at 37° C./5% CO2/90% relative humidity in Minimal Essential Medium with 10% fetal bovine serum, […] L-glutamine, 100 units/ml penicillin and 100 ug/ml streptomycin. Assay plates were prepared by dispensing compounds dissolved in DMSO into wells of 384 well collagen-coated plates using an ECHO acoustic dispenser. Each compound was tested in a 10-point, serial 3-fold dilution. Controls included uninfected cells and infected cells treated only with DMSO. Assays were initiated by mixing selected cells, in suspension, with virus, and dispensing 50 μl/well infected cells to pre-plated compounds. Plates were incubated at 37° C./5% CO2/90% relative humidity for ˜72 hrs to permit genomic replication, and infected cells were lysed by the addition of an equal volume of lysis buffer (10 mM Tris-HCl, pH8, 50 mM KCl, 2 mM MgCl2, 0.45% NP-40, 0.45% Tween-20, and 100 μg/ml proteinase K). An aliquot of the lysate was transferred to a 384-well PCR plate and incubated at 56° C. for 1 hour and then at 95° C. for 10 min. Levels of a viral gene and of the cellular control, PPIA (Thermo Fisher Assay ID=Hs04194521_s1), were measured in separate 10 μL qPCR assays using TaqMan® Gene Expression Master Mix (Applied Biosystems), and an 7900HT Fast Real-Time PCR System with 384-Well Block Module. 7-point, serial 10-fold dilutions of a plasmid standard were run on each plate to generate a standard curve, and genome copies numbers were calculated by plotting experimental Ct onto linear regression of the standard curve. Viral genome copy numbers were normalized by cellular control copy number, and compound effects were normalized to the window defined by the controls. Calculated % effects were fit using a 4-parameter algorithm, and EC50 was reported.
as §1, with “gene” for “gene and of the cellular control, PPIA (Thermo Fisher Assay ID=Hs04194521_s1),”, “in” for “in separate”, “Compound effects on viral” for “Viral”, “number” for “numbers were normalized by cellular control copy number, and compound effects”
VZV: Strain Street was maintained as an infected cell stock in MRC-5 cells. It was assayed in MeWo or MRCS cells and was used at 0.04-0.1 pfu/cell. The assays were performed in growth medium. Primer-probe set was Thermo Fisher Assay ID=AIPAEXQ. HSV-1: Strain F Street was assayed in Vero or MRCS cells and was used at 0.0005-0.004 pfu/cell in growth medium. Primer-probe set was Thermo Fisher Assay ID=AIBJZIB

HSV2 = test: Viral qPCR assay, HSV2 in Vero cells; type: cell-based, Herpes Simplex Virus type 2; details: read-out: HSV2 VERO Cell (EC50)
Method: as §1
as §1, with “gene” for “gene and of the cellular control, PPIA (Thermo Fisher Assay ID=Hs04194521_s1),”, “in” for “in separate”, “Compound effects on viral” for “Viral”, “number” for “numbers were normalized by cellular control copy number, and compound effects”

[3] = Human betaherpesvirus 5, AD169, MRC5, 72 h
[4] = Human alphaherpesvirus 1, Vero, 72 h
[5] = Human alphaherpesvirus 2, Vero, 72 h

CCC1c2c(c(C(=O)NCc3ccc(Cl)cc3)nn2C)CN1CC1CCC(=O)N1 (single isomer, unassigned) [Compound 106]
IC50 [1]: 108 nM | IC50 [2]: 30.5 nM | EC50 (HCMV Strain AD169; MRC5 cells, ~72 hrs): 1170 nM | EC50 (HSV-1 Strain F; ~72 hrs): 1060 nM | EC50 (HSV2; ~72 hrs): 1550 nM

CC1c2c(c(C(=O)NCc3ccc(Cl)cc3)nn2C)CN1C[C@H]1CCC(=O)N1 (single isomer, unassigned) [Compound 107]
IC50 [1]: 4540 nM | IC50 [2]: 1500 nM | EC50 (HCMV Strain AD169; MRC5 cells, ~72 hrs): 99000 nM | EC50 (HSV-1 Strain F; ~72 hrs): 73800 nM | EC50 (HSV2; ~72 hrs): 90300 nM

Cn1nc(C(=O)NCc2ccc(Cl)cc2)c2c1CC(CC1CCC(=O)N1)C2 (single isomer, unassigned) [Compound 130]
IC50 [1]: 4.44 nM | IC50 [2]: 4.44 nM | EC50 (HCMV Strain AD169; MRC5 cells, ~72 hrs): 1200 nM | EC50 (HSV-1 Strain F; ~72 hrs): 3840 nM | EC50 (HSV2; ~72 hrs): 4120 nM

O=C1CC[C@H](CC2Cc3c(C(=O)NCc4ccc(Cl)cc4)nn(C4CN(CC5CC5)C4)c3C2)N1 (single isomer, unassigned) [Compound 136]
IC50 [1]: 119 nM | IC50 [2]: 16.5 nM | EC50 (HCMV Strain AD169; [3]): 980 nM | EC50 (HSV-1 Strain F; [4]): 3520 nM | EC50 (HSV2; [5]): 2520 nM

Cn1nc(C(=O)NCc2ccc(Cl)cc2)c2c1CC(O)(CC1CCC(=O)N1)C2 (single isomer, unassigned) [Compound 140]
IC50 [1]: 63.2 nM | IC50 [2]: 26.5 nM | EC50 (HCMV Strain AD169; MRC5 cells, ~72 hrs): 2660 nM | EC50 (HSV-1 Strain F; ~72 hrs): 439 nM | EC50 (HSV2; ~72 hrs): 705 nM

O=C1CC[C@H](CN2Cc3c(C(=O)NCc4ccc(Cl)cc4)nn(CCN4CC(F)C4)c3C2)N1 [Compound 4]
IC50 [1]: 52.6 nM | IC50 [2]: 32.6 nM | EC50 (HCMV Strain AD169; [3]): 2980 nM | EC50 (HSV-1 Strain F; [4]): 26100 nM

CC1(C(=O)NCCn2nc(C(=O)NCc3ccc(Cl)cc3)c3c2CN(C[C@H]2CCC(=O)N2)C3)CC1 [Compound 26]
IC50 [1]: 16.2 nM | IC50 [2]: 10.2 nM | EC50 (HCMV Strain AD169; [3]): 2630 nM | EC50 (HSV-1 Strain F; [4]): 66100 nM

CC(C)n1nc(C(=O)NCc2ccc(Cl)cc2)c2c1CN(C[C@H]1CCC(=O)N1)C2 [Compound 35]
IC50 [1]: 54.8 nM | IC50 [2]: 31 nM | EC50 (HCMV Strain AD169; [3]): 2670 nM | EC50 (HSV-1 Strain F; [4]): 1850 nM | EC50 (HSV2; [5]): 581 nM

O=C1CC[C@H](CN2Cc3c(C(=O)NCc4ccc(Cl)cc4)nn(CC4(F)COC4)c3C2)N1 [Compound 37]
IC50 [1]: 23.3 nM | IC50 [2]: 60.8 nM | EC50 (HCMV Strain AD169; [3]): 3280 nM | EC50 (HSV-1 Strain F; [4]): 15500 nM | EC50 (HSV2; [5]): 23400 nM

O=C1CC[C@H](CN2Cc3c(C(=O)NCc4ccc(Cl)cc4)nn(CC4CCO4)c3C2)N1 (some centres unmarked) [Compound 39]
IC50 [1]: 54.9 nM | IC50 [2]: 45.2 nM | EC50 (HCMV Strain AD169; [3]): 1580 nM | EC50 (HSV-1 Strain F; [4]): 12400 nM | EC50 (HSV2; [5]): 16200 nM

CCC1(Cn2nc(C(=O)NCc3ccc(Cl)cc3)c3c2CN(C[C@H]2CCC(=O)N2)C3)COC1 [Compound 40]
IC50 [1]: 89.1 nM | IC50 [2]: 90.8 nM | EC50 (HCMV Strain AD169; [3]): 5300 nM | EC50 (HSV-1 Strain F; [4]): 23300 nM | EC50 (HSV2; [5]): 34500 nM

CC1c2c(c(C(=O)NCc3ccc(Cl)cc3)nn2C)CN1C[C@@H]1CCC(=O)N1 (some centres unmarked) [Compound 101]
IC50 [1]: 531 nM | IC50 [2]: 391 nM | EC50 (HCMV Strain AD169; MRC5 cells, ~72 hrs): 32700 nM | EC50 (HSV-1 Strain F; ~72 hrs): 29100 nM

Cn1nc(C(=O)NCc2ccc(Cl)cc2)c2c1C(CO)N(C[C@H]1CCC(=O)N1)C2 (some centres unmarked) [Compound 122]
IC50 [1]: 195 nM | IC50 [2]: 24.1 nM | EC50 (HCMV Strain AD169; MRC5 cells, ~72 hrs): 1310 nM | EC50 (HSV-1 Strain F; ~72 hrs): 860 nM

Cn1nc(C(=O)NCc2ccc(Cl)cc2)c2c1C1(CCC1)N(C[C@@H]1CCC(=O)N1)C2 [Compound 123]
IC50 [1]: 1210 nM | IC50 [2]: 898 nM | EC50 (HCMV Strain AD169; [3]): 14600 nM | EC50 (HSV-1 Strain F; [4]): 13300 nM

C[C@@H]1c2c(C(=O)NCc3ccc(Cl)cc3)nn(C)c2CN1C[C@H]1CCC(=O)N1 [Compound 125]
IC50 [1]: 1370 nM | EC50 (HCMV Strain AD169; MRC5 cells, ~72 hrs): 2980 nM | EC50 (HSV-1 Strain F; ~72 hrs): 4980 nM | EC50 (HSV2; ~72 hrs): 8040 nM

CN1CC(n2nc(C(=O)NCc3ccc(Cl)cc3)c3c2CC(C[C@@H]2CCC(=O)N2)C3)C1 (some centres unmarked) [Compound 138]
IC50 [1]: 170 nM | EC50 (HCMV Strain AD169; MRC5 cells, ~72 hrs): 1870 nM | EC50 (HSV-1 Strain F; ~72 hrs): 4310 nM | EC50 (HSV2; ~72 hrs): 5900 nM

Cn1nc(C(=O)NCc2ccc(Cl)cc2)c2c1CC(O)(C[C@H]1CCC(=O)N1)C2 (some centres unmarked) [Compound 139]
IC50 [1]: 50500 nM | EC50 (HCMV Strain AD169; MRC5 cells, ~72 hrs): 99000 nM | EC50 (HSV-1 Strain F; ~72 hrs): 99000 nM | EC50 (HSV2; ~72 hrs): 33000 nM
